The results in this text go back to patent publication US8791132B2, “Compounds and methods for treatment of hypertension” (Medivation Technologies, Inc., priority 2011, dated 2014).

Experiment [1] addresses T1, human recombinant adrenergic α2B receptor (Homo sapiens, UniProt P18089).
T1 construct: expressed in transfected cells; host or cells: CHO-K1
T1 sequence (P18089 1-450): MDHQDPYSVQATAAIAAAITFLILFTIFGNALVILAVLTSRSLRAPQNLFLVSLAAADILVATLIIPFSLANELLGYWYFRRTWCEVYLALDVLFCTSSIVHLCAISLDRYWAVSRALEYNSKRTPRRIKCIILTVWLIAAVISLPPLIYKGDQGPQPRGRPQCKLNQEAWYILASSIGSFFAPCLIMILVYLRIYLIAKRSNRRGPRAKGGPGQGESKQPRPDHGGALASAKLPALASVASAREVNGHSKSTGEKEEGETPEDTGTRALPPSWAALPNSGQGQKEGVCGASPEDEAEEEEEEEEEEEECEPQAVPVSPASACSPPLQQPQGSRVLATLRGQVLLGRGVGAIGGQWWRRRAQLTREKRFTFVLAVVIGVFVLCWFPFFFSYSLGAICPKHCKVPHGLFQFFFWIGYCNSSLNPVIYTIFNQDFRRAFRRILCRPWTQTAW
As to the kind of experiment: Radioligand binding, adrenergic α2B ([3H]Rauwolscine). The essentials:
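Membranes from CHO-K1 cells expressing human recombinant α2B, in 50 mM Tris-HCl pH 7.4, 12.5 mM MgCl2, 1 mM EDTA, 0.2% BSA, incubated with compound and 2.5 nM [3H]Rauwolscine, 60 min, 25 °C.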

For experiment [2], the target named is T2, human recombinant adrenergic α2A receptor (Homo sapiens, UniProt P08913).
T2 construct: expressed in transfected cells; host or cells: insect Sf9 cells
T2 sequence (P08913 1-465): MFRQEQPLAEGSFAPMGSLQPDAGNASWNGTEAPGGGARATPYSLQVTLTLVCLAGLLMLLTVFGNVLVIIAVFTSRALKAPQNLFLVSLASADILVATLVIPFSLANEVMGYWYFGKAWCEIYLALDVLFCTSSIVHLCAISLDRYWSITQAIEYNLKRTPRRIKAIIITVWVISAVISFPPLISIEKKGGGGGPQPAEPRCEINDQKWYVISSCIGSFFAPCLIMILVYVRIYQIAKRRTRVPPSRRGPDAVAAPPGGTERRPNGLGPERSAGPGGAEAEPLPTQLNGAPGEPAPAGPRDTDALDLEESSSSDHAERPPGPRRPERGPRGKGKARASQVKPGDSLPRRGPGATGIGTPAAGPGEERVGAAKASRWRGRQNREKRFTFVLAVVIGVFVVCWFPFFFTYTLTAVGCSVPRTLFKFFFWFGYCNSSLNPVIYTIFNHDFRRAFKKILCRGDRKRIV
As to the kind of experiment: Radioligand binding, adrenergic α2A ([3H]MK-912). A digest of the protocol:
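Sf9-expressed receptor was incubated with compound for 60 min at 25 °C in modified Tris-HCl buffer, pH 7.4. Nonspecific binding was taken as that remaining with 10 μM WB-4101.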

The target of experiment [3] is T3, rat adrenergic α1B receptor (Rattus norvegicus, UniProt P15823).
T3 construct: rat adrenergic α1B receptor obtained from Wistar Rat liver; from tissue; host or cells: Wistar rat liver
T3 sequence (P15823 1-515): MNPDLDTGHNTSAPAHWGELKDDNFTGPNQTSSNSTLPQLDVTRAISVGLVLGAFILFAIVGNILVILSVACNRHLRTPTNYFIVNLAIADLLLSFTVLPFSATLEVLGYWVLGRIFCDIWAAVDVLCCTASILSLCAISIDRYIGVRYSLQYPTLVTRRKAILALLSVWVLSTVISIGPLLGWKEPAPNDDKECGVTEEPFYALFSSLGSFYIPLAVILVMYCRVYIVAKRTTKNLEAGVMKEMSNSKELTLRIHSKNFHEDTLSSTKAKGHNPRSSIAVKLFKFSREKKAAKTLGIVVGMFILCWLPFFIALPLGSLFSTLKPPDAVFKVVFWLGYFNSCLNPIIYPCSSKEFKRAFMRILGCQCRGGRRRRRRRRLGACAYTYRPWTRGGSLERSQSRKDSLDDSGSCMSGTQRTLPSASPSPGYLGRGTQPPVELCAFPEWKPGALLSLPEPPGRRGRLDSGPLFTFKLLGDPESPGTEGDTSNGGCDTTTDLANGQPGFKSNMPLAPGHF
As to the kind of experiment: Radioligand binding, adrenergic α1B ([3H]Prazosin). To be noted: for Percentage inhibition of ligand binding, Adrenergic α1B / Percentage inhibition of ligand binding, Adrenergic α1B (0.1 μM): 0.1 µM. The essentials:
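Incubation ran 60 min at 25 °C in Tris-HCl buffer (50 mM, pH 7.4, 0.5 mM EDTA) with Wistar rat liver α1B receptor. 10 μM phentolamine set non-specific binding.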

Where [4] appears, read: read-out: Percentage inhibition of ligand binding, Adrenergic α2B (0.03 μM), compound at 0.03 μM, [3H]Rauwolscine, repeat datapoints each shown.
Where [5] appears, read: read-out: Percentage inhibition of ligand binding, Adrenergic α2A (0.1 μM), compound at 0.1 μM, [3H]MK-912, repeat datapoints each shown.
Where [6] appears, read: read-out: Percentage inhibition of ligand binding, Adrenergic α1B (0.1 μM), compound at 0.1 μM, [3H]Prazosin, repeat datapoints each shown.
Where [7] appears, read: compound at 0.03 μM, [3H]Rauwolscine, repeat datapoints each shown, 0.03 µM.
[8] abbreviates: compound at 0.1 μM, [3H]MK-912, repeat datapoints each shown, 0.1 µM.
[9] abbreviates: 0.03 μM compound, read-out: Percentage inhibition of ligand binding, Adrenergic α2B.
Setting [10] is: 0.1 μM compound, read-out: Percentage inhibition of ligand binding, Adrenergic α2A.
Setting [11] is: 0.1 μM compound, read-out: Percentage inhibition of ligand binding, Adrenergic α1B.
Where [12] appears, read: compound at 0.1 μM, [3H]Prazosin, repeat assays, each datapoint shown.
[13] abbreviates: compound at 0.1 μM, [3H]Prazosin, repeat datapoints each shown.
The mark [14] stands for this setting: compound at 0.03 μM, [3H]Rauwolscine, repeat assays, each datapoint shown, read-out: Percentage inhibition of ligand binding, Adrenergic α2B.
Where [15] appears, read: compound at 0.1 μM, [3H]MK-912, repeat assays, each datapoint shown, read-out: Percentage inhibition of ligand binding, Adrenergic α2A.

Where two headings read alike, the source gives them in different places.

The term inhibition denotes the relative decrease from the control value, in per cent. In the case of `Cc1ccc2c(c1)c1c(n2CC(O)c2ncc[nH]2)CCN2CCCC12` (centres unmarked) [II-139, 1-(1H-imidazol-2-yl)-2-(10-methyl-2,3,5,6-tetrahydro-1H-indolizino[7,8-b]indol-7(11cH)-yl)ethanol], in experiment [1] (setting [4]), the inhibition at 0.03 µM turned out to be 72%. Besides, the inhibition at 0.1 µM in experiment [2] (setting [5]) was determined as 7%; in experiment [3] (setting [6]), 34%.

Turning to `Cc1ccc2c(c1)c1c(n2CC(O)c2ccncc2C)CCN(C)C1` (centres unmarked) [133a], the inhibition at 0.03 µM in experiment [1] (setting [4]) worked out at 52%. Besides, the inhibition at 0.1 µM in experiment [2] (setting [5]) worked out at 13%; in experiment [3] (setting [6]), 57%.

As to `Cc1ccc2c(c1)c1c(n2CC(OC(=O)CCC(=O)O)c2ccncc2)CCN2CCCC12` (single isomer, unassigned) [V-18a, 4-(2-(10-methyl-2,3,5,6-tetrahydro-1H-indolizino[7,8-b]indol-7(11cH)-yl)-1-(pyridin-4-yl)ethoxy)-4-oxobutanoic acid], the “Percentage inhibition of ligand binding, Adrenergic α2B (0.03 μM)” value (shortened to “Percentage inhibition … (0.03 μM)”) in experiment [1] (setting [7]) is 57%. In addition, the “Percentage inhibition of ligand binding, Adrenergic α2A (0.1 μM)” value in experiment [2] (setting [8]) is 13%. Also, the inhibition at 0.1 µM in experiment [3] (setting [6]) worked out at 78%.

Consider `CC(O)(Cn1c2c(c3cc(Cl)ccc31)CNCC2)c1ccncc1` (centres unmarked) [II-62, 1-(8-chloro-1,2,3,4-tetrahydro-pyrido[4,3-b]indol-5-yl)-2-pyridin-4-yl-propan-2-ol], for which the inhibition at 0.03 µM in experiment [1] (setting [9]) is 37%. The inhibition at 0.1 µM in experiment [2] (setting [10]) stood at 5%; in experiment [3] (setting [11]), 14%.

Turning to `Cc1ccc2c(c1)c1c(n2CC(C)(O)c2ccccn2)CN(C)CC1` (single isomer, unassigned) [16b, 1-(2,6-dimethyl-1,2,3,4-tetrahydro-β-carbolin-9-yl)-2-pyridin-2-yl-propan-2-ol], in experiment [1] (compound at 0.03 μM, [3H]Rauwolscine, repeat assays, each datapoint shown, 0.03 µM), the “Percentage inhibition of ligand binding, Adrenergic α2B” value worked out at 2%. Besides, in experiment [2] (compound at 0.1 μM, [3H]MK-912, repeat assays, each datapoint shown, 0.1 µM), the “Percentage inhibition of ligand binding, Adrenergic α2A” value stood at 2%. Further, in experiment [3] (setting [12]), the “Percentage inhibition of ligand binding, Adrenergic α1B” value is given as 16%.

Take `Cc1ccc2c(c1)c1c(n2CC(O)c2ccc(O)nc2)CCN(C)C1` (centres unmarked) [II-92, 5-(2-(1,2,3,4-tetrahydro-2,8-dimethylpyrido[4,3-b]indol-5-yl)-1-hydroxyethyl)pyridin-2(1H)-one]: the inhibition at 0.03 µM in experiment [1] (setting [9]) stood at 25%. In addition, the results for the inhibition at 0.1 µM in experiment [2] (setting [10]) and in experiment [3] (setting [11]) were 0% and 13%, respectively.

One may read the Ki as the equilibrium dissociation constant of an inhibitor or competing ligand from its target. As for `Cc1ccc2c(c1)c1c(n2CC(OC(=O)N(C)C)c2ccncc2)CCN(C)C1` (single isomer, unassigned) [141b, N,N-dimethyl-carbamic acid 2-(2,8-dimethyl-1,2,3,4-tetrahydro-pyrido[4,3-b]indol-5-yl)-1-pyridin-4-yl-ethyl ester], the “Percentage inhibition … (0.03 μM)” value in experiment [1] (setting [7]) stood at 86%. Further, in experiment [1] (read-out: Ki α2B), the inhibitory constant (Ki) worked out at 3.44 nM. Moreover, the inhibition at 0.03 µM in experiment [1] (setting [4]) worked out at 79%. Further, the inhibition at 0.1 µM in experiment [2] (setting [5]) was found to be 19%; in experiment [3] (setting [6]) it was 28%.

As for `Cc1ccc2c(c1)c1c(n2CC(CC(O)C(C)(C)C)c2ccncc2)CCN(C)C1` (single isomer, unassigned) [II-227a, 6-(2,8-dimethyl-1,2,3,4-tetrahydro-pyrido[4,3-b]indol-5-yl)-2,2-dimethyl-5-pyridin-4-yl-hexan-3-ol], in experiment [1] (setting [7]), the “Percentage inhibition … (0.03 μM)” value is 86%. The “Percentage inhibition of ligand binding, Adrenergic α2A (0.1 μM)” value in experiment [2] (setting [8]) came out at 15%. In experiment [3] (setting [13]), the “Percentage inhibition of ligand binding, Adrenergic α1B (0.1 μM)” value amounted to 25%.

As to `CNC(Cn1c2c(c3cc(C)ccc31)CN(C)CC2)c1ccncc1` (single isomer, unassigned) [151b, 2-(1,2,3,4-tetrahydro-2,8-dimethylpyrido[4,3-b]indol-5-yl)-N-methyl-1-(pyridin-4-yl)ethanamine], the “Percentage inhibition … (0.03 μM)” value in experiment [1] (setting [7]) was 37%. Also, the “Percentage inhibition of ligand binding, Adrenergic α2A (0.1 μM)” value in experiment [2] (setting [8]) turned out to be 8%. In experiment [3] (setting [13]), the “Percentage inhibition of ligand binding, Adrenergic α1B (0.1 μM)” value turned out to be 9%.

With `CCOC(=O)N1CCc2c(c3cc(C)ccc3n2CC(O)c2ccncc2)C1` (centres unmarked) [compound 72, ethyl 3,4-dihydro-5-(2-hydroxy-2-(pyridin-4-yl)ethyl)-8-methyl-1H-pyrido[4,3-b]indole-2(5H)-carboxylate], in experiment [1] (setting [14]), the inhibition at 0.03 µM stood at 12%. The inhibition at 0.1 µM in experiment [2] (setting [15]) was -2%; in experiment [3] (compound at 0.1 μM, [3H]Prazosin, repeat assays, each datapoint shown, read-out: Percentage inhibition of ligand binding, Adrenergic α1B), 6%.

Consider `OC(Cn1c2c(c3ccccc31)C1CCC(C2)N1)c1ccncc1` (centres unmarked) [II-85], for which the inhibition at 0.03 µM in experiment [1] (setting [9]) was -2%. In addition, the figures for the inhibition at 0.1 µM in experiment [2] (setting [10]) and in experiment [3] (setting [11]) were 15% and -7%, respectively.

Turning to `Cc1ccc2c(c1)c1c(n2CC(N=[N+]=[N-])c2ccc(F)cc2F)CCN(C)CC1` (single isomer, unassigned) [V-21a, 6-(2-azido-2-(2,4-difluorophenyl)ethyl)-3,9-dimethyl-1,2,3,4,5,6-hexahydroazepino[4,5-b]indole], in experiment [1] (setting [4]), the inhibition at 0.03 µM worked out at 98%. Besides, the inhibition at 0.1 µM in experiment [2] (setting [5]) was found to be 62%. The “Percentage inhibition of ligand binding, Adrenergic α1B (0.1 μM)” value in experiment [3] (setting [13]) worked out at 68%.

With `CC(O)(Cn1c2c(c3cc(Cl)cnc31)CNCC2)c1ccncc1` (single isomer, unassigned) [12a, 1-(3-chloro-5,6,7,8-tetrahydro-1,6,9-triaza-fluoren-9-yl)-2-pyridin-4-yl-propan-2-ol], the inhibition at 0.03 µM in experiment [1] (setting [14]) was found to be 24%. In addition, the inhibition at 0.1 µM in experiment [2] (setting [15]) worked out at 3%. Besides, the “Percentage inhibition of ligand binding, Adrenergic α1B” value in experiment [3] (setting [12]) is 23%.

As to `Cc1ccc2c(c1)c1c(n2CC(N)c2ccncc2)CC2CCC1N2C` (single isomer, unassigned) [155b], the “Percentage inhibition … (0.03 μM)” value in experiment [1] (setting [7]) turned out to be 5%. The “Percentage inhibition of ligand binding, Adrenergic α2A (0.1 μM)” value in experiment [2] (setting [8]) was 5%. Besides, the “Percentage inhibition of ligand binding, Adrenergic α1B (0.1 μM)” value in experiment [3] (setting [13]) is reported as 1%.

For `Cc1ccc2c(c1)c1c(n2CC(O)c2ccc(C(N)=O)nc2)CCN(C)C1` (centres unmarked) [144a, 5-[2-(2,8-dimethyl-1,2,3,4-tetrahydro-pyrido[4,3-b]indol-5-yl)-1-hydroxy-ethyl]-pyridine-2-carboxylic acid amide], the inhibition at 0.03 µM in experiment [1] (setting [4]) came to 40%. The inhibition at 0.1 µM was determined as 1% in experiment [2] (setting [5]) and 57% in experiment [3] (setting [6]).

`Cc1ccc2c(c1)c1c(n2CC(O)c2cccnc2)CCN2CCCC12` (centres unmarked) [II-131, 2-(9-Methyl-1,2,3,4,5,10c-hexahydro-3a,6-diaza-cyclopenta[c]fluoren-6-yl)-1-pyridin-3-yl-ethanol]: the inhibition at 0.03 µM in experiment [1] (setting [4]) came to 103%. Further, the inhibition at 0.1 µM was 85% in experiment [2] (setting [5]) and 90% in experiment [3] (setting [6]).
